# System: metastatic melanoma
# Test: Clinical course of patient ZH311 after NY-ESO-1 vaccination and Ipilimumab
# Type: in vivo
# Excerpt: A patient ZH311 was diagnosed in 2001 with metastatic melanoma. The tumor expressed NY-ESO-1 and was serum-positive for NY-ESO-1.
# Survival time after treatment with Ipilimumab was 3 years.
substance,measurement,setting,value
Ipilimumab: anti-CTLA4 antagonistic antibody,survival time after treatment with Ipilimumab,patient ZH311,3 years
same,course of disease,"patient ZH311, Ipilimumab starting in 2007 after NY-ESO-1 vaccination",stabilized course of disease
same,overall survival time,"patient ZH311, since diagnosis 2001, NY-ESO-1 vaccination then Ipilimumab, peer group median 10 months",10 years

# From US20180353603A1, “Combination therapy including tumor associated antigen binding antibodies” (CT Atlantic Ltd., priority 2011, published 2018)
